Read-outs that look alike come from different tables or passages of the source.
How the values were obtained:
male Wistar rats [1] = test: Diuresis test: ED50 dose response, intravenous, urine electrolytes after 2.5 hours; type: in vivo; details: for ED50: Rattus norvegicus, iv, urine collected after 2.5 hours
Experimental: For the tests, male Wistar rats of about 130 g body weight from which food had been withheld for 18 hours were used. […] Intravenous administration for determining K^+ was at dosage intervals for the actiee substance of 0.05, 0.1, 0.2, 0.3, 0.6, 1, and 2 mg/kg: for determining Na^+ at dosage intervals of 0.5, 1, 2, 4, 8, 16 and 20 mg/kg. For the prior art substances compared, the same tests were made and these substances were further administered at 30 mg/kg and 100 mg/kg. Injection was into the caudal vein under light etherization. […] Peroral administration was by means of a stomach tube into the gastrointestinal tract.
Dose response curves were constructed by the use of non-linear regression analysis using the NONLIN computer program of C. Daniel and F. S. Wood in "Fitting Equations to Data" (J. Wiley & Sons, New York, 1980).
The characteristic quantity ED50 (potency) used in determining the diuretic activity is defined as the amount of active substance per kilogram of body weight required to produce a response in 50 percent of the subjects.

[2] = cited from earlier work
male Wistar rats [3] = test: Diuresis test with individual pteridine compounds, intravenous, urine after 2.5 hours; type: in vivo; details: 2.5 μmol/kg i.v.; for K^+ -excretion: control 0.609; for Na^+ -excretion: control 0.83; for Volume of urine: control 7.37
Experimental: They were orally given 20 ml/kg of an 0.9% NaCl solution just before the test substance was administered intravenously. […] Injection was into the caudal vein under light ether anasthesia. As a rule six test animals were used per test. […] Analysis was performed as for the determination of potency given above. IA stands for 2,4,7-triamino-6-[4-(2-hydroxy-3-dimethylaminopropoxy)phenyl]-pteridine.

male Wistar rats [4] = details: furosemide 8.27 mg/kg i.v. alone; 1.5 hours; mean; control 5.0
Experimental: They were orally given 20 ml/kg of an 0.9% NaCl solution just before the test substance was administered intravenously. […] Injection was into the caudal vein under light ether anasthesia. As a rule six test animals were used per test. The animals were individually placed into diuresis cages and the urine was collected after 1.5 hours. Analysis was performed as for the determination of potency given above. IA stands for 2,4,7-triamino-6-[4-(2-hydroxy-3-dimethylaminopropoxy)phenyl]-pteridine.

[5] = K^+ (potassium-sparing), read-out: ED50 K^+
[6] = Na^+ (natriuretic), read-out: ED50 Na^+

Structure (SMILES) | K^+ -excretion (male Wistar rats [3]) [mmol/kg] | Na^+ -excretion (male Wistar rats [3]) [mmol/kg] | Volume of urine (male Wistar rats [3]) [L/kg] | also measured
CN(C)CCCOc1ccc(-c2nc3c(N)nc(N)nc3nc2N)cc1 [DES-OH, 2,4,7-triamino-6-[4-(3-dimethylaminopropoxy)phenyl]-pteridine, reference compound] | – | – | – | ED50 (male Wistar rats [1]; [5]): 0.54 µmol/kg; ED50 (male Wistar rats [1]; [6]): 5.53 µmol/kg
Nc1nc(N)c2nc(-c3ccc(OCCCCC(=O)O)cc3)c(N)nc2n1 [Val-O-TA, 2,4,7-triamino-6-[4-(4-carboxybutoxy)phenyl]-pteridine] | – | – | – | diuretic, natriuretic, and antikaliuretic activity ([2]; administered intravenously): exhibit diuretic, natriuretic, and antikaliuretic activity; compensation of kaliuresis produced by furosemide ([2]; with Val-O-TA): compensated practically fully
CCCCNCC(O)COc1ccc(-c2nc3c(N)nc(N)nc3nc2N)cc1 (centres unmarked) [IJ, 2,4,7-Triamino-6-[4-(2-hydroxy-3-n-butylaminopropoxy)phenyl]-pteridine] | 0.176 | 2.86 | 0.01859 | –
CN(C)CC(O)COc1ccc(-c2nc3c(N)nc(N)nc3nc2N)cc1 (centres unmarked) [IA, 2,4,7-triamino-6-[4-(2-hydroxy-3-dimethylaminopropoxy)phenyl]-pteridine] | 0.180 | 2.78 | 0.01598 | ED50 (male Wistar rats [1]; [5]): 0.24 µmol/kg; ED50 (male Wistar rats [1]; Mg^+2 (magnesium-sparing), read-out: ED50 Mg^+2): 0.4 µmol/kg; ED50 (male Wistar rats [1]; [6]): 9.36 µmol/kg; diuretic efficacy (natriuretic, potassium- and magnesium-sparing properties) (male Wistar rats [1]; i.v.): outstanding diuretic efficacy
CCNCC(O)COc1ccc(-c2nc3c(N)nc(N)nc3nc2N)cc1 (centres unmarked) [IB, 2,4,7-Triamino-6-[4-(2-hydroxy-3-ethylaminopropoxy)phenyl]-pteridine] | 0.161 | 2.98 | 0.01878 | –
Nc1nc(N)c2nc(-c3ccc(OCC(O)CN4CCCC4)cc3)c(N)nc2n1 (centres unmarked) [IG, 2,4,7-Triamino-6-[4-(2-hydroxy-3-pyrrolidinopropoxy)phenyl]-pteridine] | 0.172 | 2.14 | 0.0133 | –
CCCCN(CCCC)CC(O)COc1ccc(-c2nc3c(N)nc(N)nc3nc2N)cc1 (centres unmarked) [IL, 2,4,7-Triamino-6-[4-(2-hydroxy-3-di-n-butylaminopropoxy)phenyl]-pteridine] | 0.191 | 2.34 | 0.01376 | –
CC(C)NCC(O)COc1ccc(-c2nc3c(N)nc(N)nc3nc2N)cc1 (centres unmarked) [IH, 2,4,7-Triamino-6-[4-(2-hydroxy-3-isopropylaminopropoxy)phenyl]-pteridine] | 0.161 | 2.49 | 0.01474 | –
NS(=O)(=O)c1cc(C(=O)O)c(NCc2ccco2)cc1Cl [Furosemide, 4-chloro-N-furfuryl-5-sulfamoylanthranilic acid] | – | – | – | Volume of urine (male Wistar rats [4]): 0.0525 L/kg
CCN(CC)CC(O)COc1ccc(-c2nc3c(N)nc(N)nc3nc2N)cc1 (centres unmarked) [IE, 2,4,7-Triamino-6-[4-(2-hydroxy-3-diethylaminopropoxy)phenyl]-pteridine] | 0.163 | 2.61 | 0.01102 | –
Nc1nc(N)c2nc(-c3ccc(OCC(O)CN4CCOCC4)cc3)c(N)nc2n1 (centres unmarked) [ID, 2,4,7-Triamino-6-[4-(2-hydroxy-5-morpholinopropoxy)phenyl]-pteridine] | 0.237 | 2.78 | 0.0193 | –
Nc1nc(N)c2nc(-c3ccccc3)c(N)nc2n1 [Triamterene, 2,4,7-triamino-6-phenyl-pteridine, reference compound] | 0.402 | 1.17 | 0.00796 | ED50 (male Wistar rats [1]; [5]): 1.87 µmol/kg; ED50 (male Wistar rats [1]; [6]): 4.4 µmol/kg
CC(C)N(CC(O)COc1ccc(-c2nc3c(N)nc(N)nc3nc2N)cc1)C(C)C (centres unmarked) [IK, 2,4,7-Triamino-6-[4-(2-hydroxy-3-diisopropylaminopropoxy)phenyl]-pteridine] | 0.191 | 2.08 | 0.01024 | –
CNCC(O)COc1ccc(-c2nc3c(N)nc(N)nc3nc2N)cc1 (centres unmarked) [IC, 2,4,7-Triamino-6-[4-(2-hydroxy-3-methylaminopropoxy)phenyl]-pteridine] | 0.211 | 2.63 | 0.01585 | –
Nc1nc(N)c2nc(-c3ccc(OCC(O)CN4CCCCC4)cc3)c(N)nc2n1 (centres unmarked) [IF, 2,4,7-Triamino-6-[4-(2-hydroxy-3-piperidinopropoxy)phenyl]-pteridine] | 0.191 | 1.95 | 0.01017 | –
